Experimental data published in patent US20240409585A1, “MACROCYCLIC IMMUNOMODULATORS” (priority 2021, published 2024).
Numbered stars: 1 amine (or outer) side, 2 acyl side, 3 side chain; on linkers, the order of the positions; unused ones are H or OH. Bridge positions count the residues as written; N and C are the ends. Square brackets hold non-standard residues; d marks the D form. Peptide text beside a SMILES is read from it. * marks the point of attachment. Bip(4'-COOH) = N[C@@H](Cc1ccc(-c2ccc(C(=O)O)cc2)cc1)C(=O)O; Bip(4'-NHAc) = CC(=O)Nc1ccc(-c2ccc(C[C@H](N)C(=O)O)cc2)cc1; Phe(3-CF3) = N[C@@H](Cc1cccc(C(F)(F)F)c1)C(=O)O; Ala(morpholin-4-yl) = N[C@@H](CN1CCOCC1)C(=O)O; Phe(4-CONH2) = NC(=O)c1ccc(C[C@H](N)C(=O)O)cc1; Phe(4-COOH) = N[C@@H](Cc1ccc(C(=O)O)cc1)C(=O)O; X53 = O=C([C@H](Cc1cc(F)c(F)cc1F)N[*:1])[*:2]; Bip = N[C@@H](Cc1ccc(-c2ccccc2)cc1)C(=O)O; Phe(3-Me) = Cc1cccc(C[C@H](N)C(=O)O)c1; Abu(3S-NH2) = C[C@H](N)[C@H](N)C(=O)O; Gla = N[C@@H](CC(C(=O)O)C(=O)O)C(=O)O; Val(3-OH) = CC(C)(O)[C@H](N)C(=O)O; 2Pal = N[C@@H](Cc1ccccn1)C(=O)O; Cha = N[C@@H](CC1CCCCC1)C(=O)O; Carboxymethyl = O=C(O)C*; NMeA = CN[C@@H](C)C(=O)O; Orn = NCCC[C@H](N)C(=O)O; Dab = NCC[C@H](N)C(=O)O

Each molecule was assayed against T1, Alexa fluor-647 labeled human PD-L1-Ig binding to Jurkat cell line over-expressing human PD-1 (Homo sapiens, UniProt Q15116) (assay: Jurkat-PD-1 Cell Binding High-Content Screening Assay (CBA): Method 3 (Alexa fluor-647 labeled PD-L1-Ig)). Details: Jurkat-PD-1 cells, Alexa fluor-647 labeled PD-L1-Ig 177 nM; head μM; read-out: CBA Method 3 μM.
T1 construct: expressed in transfected cells; host or cells: Jurkat
T1 sequence (Q15116 25-288): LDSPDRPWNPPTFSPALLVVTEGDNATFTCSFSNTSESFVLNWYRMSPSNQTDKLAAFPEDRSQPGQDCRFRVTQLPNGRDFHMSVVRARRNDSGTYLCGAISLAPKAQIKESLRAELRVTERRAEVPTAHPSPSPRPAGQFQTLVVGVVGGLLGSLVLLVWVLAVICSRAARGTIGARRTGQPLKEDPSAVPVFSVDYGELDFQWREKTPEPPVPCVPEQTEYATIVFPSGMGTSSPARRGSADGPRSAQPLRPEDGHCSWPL
Method in brief: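 Readout by high-content imaging of PFA-fixed, Hoechst-stained cells after 1 h with 177 nM (final) Alexa fluor-647 PD-L1-Ig. Compound was added first to hPD-1 Jurkat cells in RPMI plus 10% FCS for 2 h at 37 °C.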
Work on `Cc1cccc(C[C@@H]2NC(=O)[C@H](CC(=O)O)NC(=O)[C@H](Cc3ccc(OCC(=O)O)cc3)NC(=O)[C@H](CC3CCCCC3)NC(=O)CSC[C@@H](C(=O)N[C@@H](CCN)C(N)=O)NC(=O)[C@H](CCCN)NC(=O)[C@H](C(C)C)NC(=O)[C@H](Cc3ccccn3)NC(=O)[C@H](CCN)NC(=O)[C@@H](CC(C)C)NC(=O)[C@H](C)N(C)C(=O)[C@H](CCC(N)=O)NC(=O)[C@H](Cc3ccc(-c4ccccc4)cc3)NC(=O)[C@H](Cc3ccc(C(=O)O)cc3)NC2=O)c1` [Example 5194] ({CH2CO}-[Cha]Y(Carboxymethyl)D[Phe(3-Me)][Phe(4-COOH)][Bip]Q[NMeA][dL][Dab][2Pal]V[Orn]C[Dab]-NH2; thioether N-14) yielded an IC50 of 0.04 µM. `CC(=O)Nc1ccc(-c2ccc(C[C@@H]3NC(=O)[C@H](Cc4cccc(C)c4)NC(=O)[C@H](CC(=O)O)NC(=O)[C@H](Cc4ccc(C(=O)O)cc4)NC(=O)[C@H](CC4CCCCC4)NC(=O)CSC[C@@H](C(=O)N[C@@H](CCN)C(N)=O)NC(=O)[C@H](CCC(=O)O)NC(=O)[C@H](C(C)C)NC(=O)[C@H](CC4CCCCC4)NC(=O)[C@H](CCN)NC(=O)[C@@H](CC(C)C)NC(=O)[C@H](C)N(C)C(=O)[C@H](Cc4ccc(C(=O)O)cc4)NC(=O)[C@H](Cc4ccc(-c5ccccc5)cc4)NC3=O)cc2)cc1` [Example 5199] ({CH2CO}-[Cha][Phe(4-COOH)]D[Phe(3-Me)][Bip(4'-NHAc)][Bip][Phe(4-COOH)][NMeA][dL][Dab][Cha]VEC[Dab]-NH2; thioether N-14) showed an IC50 of 0.01 µM. For `CC(=O)Nc1ccc(-c2ccc(C[C@@H]3NC(=O)[C@H](Cc4cccc(C)c4)NC(=O)[C@H](CC(=O)O)NC(=O)[C@H](Cc4ccc(-c5ccc(C(=O)O)cc5)cc4)NC(=O)[C@H]([C@@H](C)O)NC(=O)CSC[C@@H](C(=O)N[C@@H](CCN)C(N)=O)NC(=O)[C@H](Cc4cnc[nH]4)NC(=O)[C@H](C(C)(C)O)NC(=O)[C@H](CC4CCCCC4)NC(=O)[C@H](CCN)NC(=O)[C@@H](CC(C)C)NC(=O)[C@H](C)N(C)C(=O)[C@H](Cc4ccc(OCC(=O)O)cc4)NC(=O)[C@H](Cc4ccc(-c5ccccc5)cc4)NC3=O)cc2)cc1` [Example 5132] ({CH2CO}-T[Bip(4'-COOH)]D[Phe(3-Me)][Bip(4'-NHAc)][Bip]Y(Carboxymethyl)[NMeA][dL][Dab][Cha][Val(3-OH)]HC[Dab]-NH2; thioether N-14), the IC50 was 0.02 µM. `Cc1cccc(C[C@@H]2NC(=O)[C@H](CC(=O)O)NC(=O)[C@H](Cc3ccc(OCC(=O)O)cc3)NC(=O)[C@H](Cc3cc(F)c(F)cc3F)NC(=O)CSC[C@@H](C(=O)N[C@@H](CCN)C(N)=O)NC(=O)[C@H](CCCN)NC(=O)[C@H](C(C)C)NC(=O)[C@H](CC3CCCCC3)NC(=O)[C@H](CCN)NC(=O)[C@@H](CC(C)C)NC(=O)[C@H](C)N(C)C(=O)[C@H](CCC(N)=O)NC(=O)[C@H](Cc3ccc(-c4ccccc4)cc3)NC(=O)[C@H](Cc3ccc(C(=O)O)cc3)NC2=O)c1` [Example 5290] ({CH2CO}-[X53]Y(Carboxymethyl)D[Phe(3-Me)][Phe(4-COOH)][Bip]Q[NMeA][dL][Dab][Cha]V[Orn]C[Dab]-NH2; thioether N-14) was tested, and the IC50 was 0.1 µM. Molecule `COc1ccc(C[C@@H]2NC(=O)[C@H](CN3CCOCC3)NC(=O)CSC[C@@H](C(=O)N[C@@H](CCN)C(N)=O)NC(=O)[C@H](CCCN)NC(=O)[C@H](C(C)C)NC(=O)[C@H](CC3CCCCC3)NC(=O)[C@H](CCN)NC(=O)[C@@H](CC(C)C)NC(=O)[C@H](C)N(C)C(=O)[C@H](CCC(N)=O)NC(=O)[C@H](Cc3ccc(-c4ccccc4)cc3)NC(=O)[C@H](Cc3ccc(OCC(=O)O)cc3)NC(=O)[C@H](Cc3cccc(C(F)(F)F)c3)NC(=O)[C@H](CC(=O)O)NC2=O)cc1` [Example 5263] ({CH2CO}-[Ala(morpholin-4-yl)]Y(Me)D[Phe(3-CF3)]Y(Carboxymethyl)[Bip]Q[NMeA][dL][Dab][Cha]V[Orn]C[Dab]-NH2; thioether N-14) has an IC50 of 0.18 µM.

Same assay, conditions: Jurkat-PD-1 cells, Alexa fluor-647 labeled PD-L1-Ig 177 nM; nM; read-out: CBA Method 3
`CC(C)C[C@H]1NC(=O)[C@H](C)N(C)C(=O)[C@H](Cc2ccc(C(N)=O)cc2)NC(=O)[C@H](Cc2ccc(-c3ccccc3)cc2)NC(=O)[C@H](Cc2ccc(C(=O)O)cc2)NC(=O)[C@H](Cc2cccc(C(F)(F)F)c2)NC(=O)[C@H](CC(=O)O)NC(=O)[C@H](Cc2ccc(C(=O)O)cc2)NC(=O)[C@H]([C@H](C)N)NC(=O)CSC[C@@H](C(=O)N[C@@H](CCN)C(N)=O)NC(=O)[C@H](CO)NC(=O)[C@H](C(C)(C)O)NC(=O)[C@H](CC2CCCCC2)NC(=O)[C@H](CCN)NC1=O` [Example 5208] ({CH2CO}-[Abu(3S-NH2)][Phe(4-COOH)]D[Phe(3-CF3)][Phe(4-COOH)][Bip][Phe(4-CONH2)][NMeA][dL][Dab][Cha][Val(3-OH)]SC[Dab]-NH2; thioether N-14) was tested, and the IC50 was 0.0038 µM. With `Cc1cccc(C[C@@H]2NC(=O)[C@H](CC(=O)O)NC(=O)[C@H](Cc3ccc(C(=O)O)cc3)NC(=O)[C@H](CC3CCCCC3)NC(=O)CSC[C@@H](C(=O)N[C@@H](CCN)C(N)=O)NC(=O)[C@H](CCC(=O)O)NC(=O)[C@H](C(C)C)NC(=O)[C@H](CC3CCCCC3)NC(=O)[C@H](CCN)NC(=O)[C@@H](CC(C)C)NC(=O)[C@H](C)N(C)C(=O)[C@H](Cc3ccc(C(=O)O)cc3)NC(=O)[C@H](Cc3ccc(-c4ccccc4)cc3)NC(=O)[C@H](Cc3ccc(OCC(=O)O)cc3)NC2=O)c1` [Example 5201] ({CH2CO}-[Cha][Phe(4-COOH)]D[Phe(3-Me)]Y(Carboxymethyl)[Bip][Phe(4-COOH)][NMeA][dL][Dab][Cha]VEC[Dab]-NH2; thioether N-14) the IC50 was 0.0062 µM. Molecule `Cc1cccc(C[C@@H]2NC(=O)[C@H](CC(=O)O)NC(=O)[C@H](Cc3ccc(OCC(=O)O)cc3)NC(=O)[C@H](CC(C(=O)O)C(=O)O)NC(=O)CSC[C@@H](C(=O)N[C@@H](CCN)C(N)=O)NC(=O)[C@H](CCCN)NC(=O)[C@H](C(C)C)NC(=O)[C@H](CC3CCCCC3)NC(=O)[C@H](CCN)NC(=O)[C@@H](CC(C)C)NC(=O)[C@H](C)N(C)C(=O)[C@H](CCC(N)=O)NC(=O)[C@H](Cc3ccc(-c4ccccc4)cc3)NC(=O)[C@H](Cc3ccc(C(=O)O)cc3)NC2=O)c1` [Example 5169] ({CH2CO}-[Gla]Y(Carboxymethyl)D[Phe(3-Me)][Phe(4-COOH)][Bip]Q[NMeA][dL][Dab][Cha]V[Orn]C[Dab]-NH2; thioether N-14) has an IC50 of 0.0089 µM. `CC(=O)Nc1ccc(-c2ccc(C[C@@H]3NC(=O)[C@H](Cc4cccc(C(F)(F)F)c4)NC(=O)[C@H](CC(=O)O)NC(=O)[C@H](Cc4ccc(C(=O)O)cc4)NC(=O)[C@H](CC(C)C)NC(=O)CSC[C@@H](C(=O)N[C@@H](CCN)C(N)=O)NC(=O)[C@H](CC(N)=O)NC(=O)[C@H](C(C)C)NC(=O)[C@H](CC4CCCCC4)NC(=O)[C@H](CCN)NC(=O)[C@@H](CC(C)C)NC(=O)[C@H](C)N(C)C(=O)[C@H](CCCN)NC(=O)[C@H](Cc4ccc(-c5ccccc5)cc4)NC3=O)cc2)cc1` [Example 5095] ({CH2CO}-L[Phe(4-COOH)]D[Phe(3-CF3)][Bip(4'-NHAc)][Bip][Orn][NMeA][dL][Dab][Cha]VNC[Dab]-NH2; thioether N-14) gave an IC50 of 0.0061 µM.
